The subject of one test is C57BL/6N female mice. The experiment in a line: In vivo survival study after Jo2 antibody injection. Conditions: 30 mg/kg oral gavage 1 h before i.p. 0.8 μg/g Jo2 antibody; versus vehicle only; 24 h; FIG. 1.
The target of a further test is T1, MKK7 (Homo sapiens, UniProt O14733).
T1 sequence (O14733 1-419): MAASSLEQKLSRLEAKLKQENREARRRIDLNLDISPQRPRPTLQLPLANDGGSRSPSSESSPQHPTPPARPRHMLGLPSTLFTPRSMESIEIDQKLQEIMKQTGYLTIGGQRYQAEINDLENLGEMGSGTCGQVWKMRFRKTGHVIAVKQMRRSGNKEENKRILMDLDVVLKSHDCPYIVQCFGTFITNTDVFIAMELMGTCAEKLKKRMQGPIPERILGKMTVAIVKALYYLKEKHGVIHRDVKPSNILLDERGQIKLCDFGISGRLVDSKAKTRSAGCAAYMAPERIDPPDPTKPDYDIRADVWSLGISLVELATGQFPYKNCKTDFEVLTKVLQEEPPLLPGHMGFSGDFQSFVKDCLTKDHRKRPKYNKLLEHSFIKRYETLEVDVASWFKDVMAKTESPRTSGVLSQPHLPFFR
The test is described as follows: KINOMEscan competition binding assay, selectivity MKK7 versus MKK4. Conditions: Test conc. 0.1 μM; ratio of percent of control; N/E* per footnote.

A further test addresses BRaf (Homo sapiens, UniProt P15056). The test is described as follows: KINOMEscan competition binding assay, selectivity BRaf versus MKK4. Conditions: Test conc. 0.1 μM; ratio of percent of control; N/E* per footnote.
The target of the next test is T2, MKK4 active (Homo sapiens, UniProt P45985).
T2 construct: purchased ProQinase 0948-0000-1
T2 sequence (P45985 1-399): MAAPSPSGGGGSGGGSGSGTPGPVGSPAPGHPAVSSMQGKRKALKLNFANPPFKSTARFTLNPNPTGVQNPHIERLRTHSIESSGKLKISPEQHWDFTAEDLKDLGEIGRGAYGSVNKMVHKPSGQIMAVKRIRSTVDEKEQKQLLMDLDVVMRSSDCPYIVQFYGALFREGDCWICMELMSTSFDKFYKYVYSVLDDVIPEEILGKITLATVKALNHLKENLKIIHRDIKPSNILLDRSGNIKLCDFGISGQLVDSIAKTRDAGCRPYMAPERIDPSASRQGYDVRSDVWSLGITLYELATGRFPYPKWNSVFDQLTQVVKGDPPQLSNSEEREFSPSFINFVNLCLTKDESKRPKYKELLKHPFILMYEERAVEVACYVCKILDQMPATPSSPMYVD
The experiment in a line: Radiometric protein kinase assay, MKK4 active. The test is classed as biochemical. The following applies: substrate JNK1 KRKR, ATP 0.2 μM, read-out: MKK4 (potency derived from IC50-values). The protocol:
(§1) A radiometric protein kinase assay was used for measuring the kinase activity of the respective protein kinases. All kinase assays were performed in 96-well polypropylene plates. After the reactions were stopped, the assay mixtures were transferred to 96-well MSFC filter-plates (Millipore). The reaction mix was passed through the filter membrane by aspiration, the membrane was washed 3 times with 150 mM H3PO4, once with ethanol, dried and liquid scintillation cocktail was added. Radioactivity was determined by counting of the samples in a Microbeta multiwell scintillation counter (Wallac).
(§2) b) Single Kinases • 20 μl standard assay buffer • 5 μl compound in 10% DMSO • 20 μl enzyme-substrate mix • 10 μl of substrate solution
(§3) The reaction cocktails were incubated at 30° C. for 30 minutes.

The target of the next test is T3, MEKK2 (Homo sapiens, UniProt Q9Y2U5).
T3 construct: purchased ProQinase 0583-0000-1
T3 sequence (Q9Y2U5 1-619): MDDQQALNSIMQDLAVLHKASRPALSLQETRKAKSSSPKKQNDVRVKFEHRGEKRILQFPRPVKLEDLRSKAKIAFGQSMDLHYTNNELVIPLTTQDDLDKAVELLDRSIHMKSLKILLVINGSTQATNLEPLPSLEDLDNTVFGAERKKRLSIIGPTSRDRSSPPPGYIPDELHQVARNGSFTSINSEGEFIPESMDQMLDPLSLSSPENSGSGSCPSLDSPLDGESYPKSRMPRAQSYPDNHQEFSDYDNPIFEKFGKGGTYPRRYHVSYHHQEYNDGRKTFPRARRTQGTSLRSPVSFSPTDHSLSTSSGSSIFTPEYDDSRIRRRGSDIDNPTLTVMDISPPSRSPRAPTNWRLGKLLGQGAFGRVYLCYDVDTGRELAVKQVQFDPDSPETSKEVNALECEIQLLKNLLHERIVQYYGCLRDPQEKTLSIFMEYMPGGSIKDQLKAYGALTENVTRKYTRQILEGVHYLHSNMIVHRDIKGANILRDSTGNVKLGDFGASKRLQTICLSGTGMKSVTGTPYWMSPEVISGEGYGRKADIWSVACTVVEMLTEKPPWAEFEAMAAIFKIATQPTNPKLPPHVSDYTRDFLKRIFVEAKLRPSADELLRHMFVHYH
The experiment in a line: Radiometric protein kinase assay, MEKK2. It counts as biochemical. Conditions: substrate Casein, ATP 0.2 μM; read-out: MEKK2 (potency derived from IC50-values). How it is done: as §1, §2, §3

Another test deals with JNK1 (Homo sapiens, UniProt P45983). The experiment in a line: KINOMEscan competition binding assay, selectivity JNK1 versus MKK4. The following applies: Test conc 0.1 μM; ratio of percent of control; N/E* = PoC for JNK1 = 100.
A further test concerns the target T4, MKK4 (Homo sapiens, UniProt P45985).
T4 sequence (P45985 84-399): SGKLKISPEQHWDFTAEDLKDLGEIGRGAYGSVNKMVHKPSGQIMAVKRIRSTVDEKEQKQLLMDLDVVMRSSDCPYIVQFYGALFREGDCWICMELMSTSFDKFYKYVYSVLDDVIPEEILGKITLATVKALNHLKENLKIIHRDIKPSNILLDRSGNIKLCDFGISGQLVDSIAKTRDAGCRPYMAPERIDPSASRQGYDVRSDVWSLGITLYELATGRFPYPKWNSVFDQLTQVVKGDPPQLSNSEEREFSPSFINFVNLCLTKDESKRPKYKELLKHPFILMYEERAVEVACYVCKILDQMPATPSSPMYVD
The experiment in a line: KINOMEscan competition binding assay, MKK4. Conditions: read-out: Potency MKK4 (derived from % of control values, PoC).

Each structure is given as a SMILES string.

Sequence of BRaf (P15056 whole entry): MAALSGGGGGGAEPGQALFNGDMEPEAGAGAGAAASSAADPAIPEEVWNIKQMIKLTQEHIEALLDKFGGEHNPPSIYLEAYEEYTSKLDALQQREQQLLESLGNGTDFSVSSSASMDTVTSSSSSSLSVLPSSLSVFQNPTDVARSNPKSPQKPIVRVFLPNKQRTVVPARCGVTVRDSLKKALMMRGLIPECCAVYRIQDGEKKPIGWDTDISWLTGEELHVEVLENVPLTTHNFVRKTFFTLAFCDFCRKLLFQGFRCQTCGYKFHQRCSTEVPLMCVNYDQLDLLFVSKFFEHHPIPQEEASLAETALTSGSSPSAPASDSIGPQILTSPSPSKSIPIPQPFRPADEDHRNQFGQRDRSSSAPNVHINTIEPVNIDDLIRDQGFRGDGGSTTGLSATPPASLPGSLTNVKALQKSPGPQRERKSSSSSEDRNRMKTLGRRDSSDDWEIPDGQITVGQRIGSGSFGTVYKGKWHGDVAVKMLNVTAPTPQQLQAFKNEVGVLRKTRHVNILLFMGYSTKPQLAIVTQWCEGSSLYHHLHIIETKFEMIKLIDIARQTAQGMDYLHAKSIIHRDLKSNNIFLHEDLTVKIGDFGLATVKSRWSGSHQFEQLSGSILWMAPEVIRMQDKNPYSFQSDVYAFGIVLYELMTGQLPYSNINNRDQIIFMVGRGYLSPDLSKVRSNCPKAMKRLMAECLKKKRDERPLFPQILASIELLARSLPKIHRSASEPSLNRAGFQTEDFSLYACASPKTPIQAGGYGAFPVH
Sequence of JNK1 (P45983 1-384 isoform P45983-2): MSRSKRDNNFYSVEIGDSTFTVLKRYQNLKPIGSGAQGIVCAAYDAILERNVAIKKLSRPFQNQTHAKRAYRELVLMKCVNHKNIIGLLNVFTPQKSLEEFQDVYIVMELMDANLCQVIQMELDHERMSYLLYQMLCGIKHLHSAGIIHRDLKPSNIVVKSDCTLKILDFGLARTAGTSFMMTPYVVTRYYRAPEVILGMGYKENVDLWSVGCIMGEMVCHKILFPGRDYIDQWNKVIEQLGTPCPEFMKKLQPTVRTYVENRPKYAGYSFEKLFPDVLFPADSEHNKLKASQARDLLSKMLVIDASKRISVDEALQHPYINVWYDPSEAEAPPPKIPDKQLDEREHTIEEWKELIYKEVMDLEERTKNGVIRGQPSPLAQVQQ
Protocol for C57BL/6N female mice: C57BL/6N female mice, age 6-9 weeks, purchased from Charles River Laboratories, Research Models and Services, Germany GmbH (Sulzfeld), were housed in accordance with the institutional guidelines of the University of TObingen, Germany. All animal experiments were approved by the German legal authorities.
Three experiments with n=3, n=4 and n=6 animals per group were performed. At time point t=−1 h), mice were dosed by oral gavage with either 30 mg/kg of compound, mixed in 2% hydroxymethylcellulose, pH 4.0) or vehicle only. One hour later (t=0 h), all animals were intraperitoneally (i.p.) injected with 0.8 μg/g mouse weight of Jo2 antibody (BD Pharmingen, San Diego, Calif.) diluted in 0.9% NaCl.
Mice were continuously monitored and survival was monitored all 15 min. After 24 h, all surviving animals were sacrificed.
Protocol for JNK1: (§4) The assay was performed by combining three components: DNA-tagged kinase; immobilized ligand; and a test compound. The ability of the test compound to compete with the immobilized ligand was measured via quantitative PCR of the DNA tag.
(§5) For investigation of the affinity to MKK4, MKK7 and JNK1, the kinases were produced in HEK-293 cells and subsequently tagged with DNA for qPCR detection. […] The liganded beads were blocked with excess biotin and washed with blocking buffer (SEABLOCK™ (Pierce), 1% BSA, 0.05% TWEEN®20, 1 mM DTT) to remove unbound ligand and to reduce nonspecific binding. […] All reactions were performed in polystyrene 96-well plates in a final volume of 0.135 mL. […] The kinase concentration in the eluates was measured by qPCR.
(§6) The test compounds were provided as 10 mM stock solutions. The test solutions at indicated final concentrations were prepared at DiscoverX.
Protocol for MKK7: as §4, §5, §6

Turning to `CCCS(=O)(=O)Nc1ccc(F)c(C(=O)c2c[nH]c3ncc(-c4ccc(Cl)cc4)cc23)c1F` [Example 2, Propane-1-sulfonic acid {3-[5-(4-chloro-phenyl)-1H-pyrrolo[2,3-b]pyridine-3-carbonyl]-2,4-difluoro-phenyl}-amide], in the test with C57BL/6N female mice, the survival rate entry is given as “significantly higher”.
As a reminder, the IC50 is the midpoint of a concentration-inhibition curve. Regarding `CC(C)c1ccc(-c2cnc3[nH]cc(C(=O)c4cccc(NS(C)(=O)=O)c4F)c3c2)cc1` [Example 45], the “Selectivity MKK7/MKK4” value on MKK7 was “N/E* (PoC for JNK1 = 100)”. Also, the “Selectivity BRaf/MKK4” value on BRaf is on record as “N/E* (PoC for JNK1 = 100)”. In addition, the IC50 is 1000 to 10000 nM at MKK4 active and over 10000 nM at MEKK2. Moreover, the “Selectivity JNK1/MKK4” value at JNK1 was “N/E* (PoC for JNK1 = 100)”. For the same compound, the remaining binding at 0.1 µM at MKK4 is over 30%.
On to `COc1ccc(-c2cnc3[nH]cc(C(=O)c4cccc(NS(C)(=O)=O)c4F)c3c2)c(Cl)c1` [Example 46], for which, at MKK7, the “Selectivity MKK7/MKK4” value was 10. Also, the “Selectivity BRaf/MKK4” value at BRaf was “N/E* (PoC for JNK1 = 100)”. Besides, the IC50 at MKK4 active is under 500 nM; on MEKK2 it was 1000 to 10000 nM. The “Selectivity JNK1/MKK4” value at JNK1 was “N/E* (PoC for JNK1 = 100)”. For the same compound, at MKK4, the remaining binding at 0.1 µM is under 10%.
As for `CS(=O)(=O)Nc1cccc(C(=O)c2c[nH]c3ncc(-c4cc5c(cc4Cl)OCO5)cc23)c1F` [Example 47], the “Selectivity MKK7/MKK4” value on MKK7 amounted to 9.7. The “Selectivity BRaf/MKK4” value at BRaf is reported as “N/E* (PoC for JNK1 = 100)”. For the same compound, the results for the IC50 at MKK4 active and on MEKK2 were under 500 nM and 1000 to 10000 nM, respectively. Further, on JNK1, the “Selectivity JNK1/MKK4” value was found to be 10. Also, the remaining binding at 0.1 µM on MKK4 is under 10%.
Take `CS(=O)(=O)Nc1cccc(C(=O)c2c[nH]c3ncc(-c4cc5c(cc4Cl)OCCO5)cc23)c1F` [Example 48]: the “Selectivity MKK7/MKK4” value at MKK7 was 8.7. Besides, at BRaf, the “Selectivity BRaf/MKK4” value is listed as “N/E* (PoC for JNK1 = 100)”. The IC50 was 1000 to 10000 nM on MKK4 active and over 10000 nM on MEKK2. Besides, at JNK1, the “Selectivity JNK1/MKK4” value is recorded as 8.4. Moreover, the remaining binding at 0.1 µM on MKK4 was 10 to 30%.
For the compound `CCCCS(=O)(=O)Nc1cccc(C(=O)c2c[nH]c3ncc(-c4ccc(Cl)cc4)cc23)c1F` [Example 50], the “Selectivity MKK7/MKK4” value on MKK7 is on record as “N/E* (PoC for JNK1 = 100)”. Moreover, the “Selectivity BRaf/MKK4” value on BRaf was determined as 7.0. For the same compound, the concentration for half-maximal inhibition (IC50) is under 500 nM on MKK4 active and over 10000 nM on MEKK2. Moreover, the “Selectivity JNK1/MKK4” value on JNK1 is on record as “N/E* (PoC for JNK1 = 100)”. For the same compound, the remaining binding at 0.1 µM at MKK4 was 10 to 30%.
For `CCCCS(=O)(=O)Nc1cccc(C(=O)c2c[nH]c3ncc(-c4ccc(OC)cc4Cl)cc23)c1F` [Example 52], the “Selectivity MKK7/MKK4” value at MKK7 was “N/E* (PoC for JNK1 = 100)”. At BRaf, the “Selectivity BRaf/MKK4” value is on record as “N/E* (PoC for JNK1 = 100)”. Also, the IC50 is under 500 nM on MKK4 active and over 10000 nM at MEKK2. Moreover, the “Selectivity JNK1/MKK4” value on JNK1 turned out to be 17. Moreover, the remaining binding at 0.1 µM at MKK4 is under 10%.
Turning to `CCCCS(=O)(=O)Nc1cccc(C(=O)c2c[nH]c3ncc(-c4ccc5c(c4)OCO5)cc23)c1F` [Example 53], on MKK7, the “Selectivity MKK7/MKK4” value is on record as “N/E* (PoC for JNK1 = 100)”. The “Selectivity BRaf/MKK4” value at BRaf was determined as 56. Moreover, the half-inhibitory concentration (IC50) is under 500 nM at MKK4 active and 1000 to 10000 nM on MEKK2. The “Selectivity JNK1/MKK4” value at JNK1 is listed as “N/E* (PoC for JNK1 = 100)”. For the same compound, on MKK4, the remaining binding at 0.1 µM is under 10%.
For the compound `CCCCS(=O)(=O)Nc1cccc(C(=O)c2c[nH]c3ncc(-c4ccc5c(c4)OCCO5)cc23)c1F` [Example 54], the “Selectivity MKK7/MKK4” value at MKK7 stood at 61. Moreover, the “Selectivity BRaf/MKK4” value at BRaf is recorded as 36. The IC50 on MKK4 active was under 500 nM; at MEKK2 it was 1000 to 10000 nM. For the same compound, the “Selectivity JNK1/MKK4” value at JNK1 was 55. Moreover, the remaining binding at 0.1 µM at MKK4 was under 10%.
Take `CCCCS(=O)(=O)Nc1cccc(C(=O)c2c[nH]c3ncc(-c4cc5c(cc4Cl)OCO5)cc23)c1F` [Example 55]: the “Selectivity MKK7/MKK4” value on MKK7 was “N/E* (PoC for JNK1 = 100)”. Besides, at BRaf, the “Selectivity BRaf/MKK4” value was “N/E* (PoC for JNK1 = 100)”. In addition, the 50% inhibitory concentration (IC50) on MKK4 active was under 500 nM; on MEKK2, over 10000 nM. For the same compound, at JNK1, the “Selectivity JNK1/MKK4” value came out at 14. Besides, on MKK4, the remaining binding at 0.1 µM is under 10%.
Take `CCCCS(=O)(=O)Nc1cccc(C(=O)c2c[nH]c3ncc(-c4cc5c(cc4Cl)OCCO5)cc23)c1F` [Example 56]: the “Selectivity MKK7/MKK4” value on MKK7 was “N/E* (PoC for JNK1 = 100)”. For the same compound, the “Selectivity BRaf/MKK4” value at BRaf is given as “N/E* (PoC for JNK1 = 100)”. Besides, the concentration for half-maximal inhibition (IC50) is under 500 nM at MKK4 active and over 10000 nM at MEKK2. Also, the “Selectivity JNK1/MKK4” value on JNK1 worked out at 24. Besides, on MKK4, the remaining binding at 0.1 µM was under 10%.

Source of the values: patent US11040027B2, “Protein kinase inhibitors for promoting liver regeneration or reducing or preventing hepatocyte death” (HEPAREGENIX GMBH, priority 2017, dated 2021).
